# Reference: US4175081A, “5-Substituted thiadiazole ureas” (priority 1977, dated 1979)
# Columns and labels:
# Turnip (TP) [1] = assay: Post-emergence herbicide test; assay type: in vivo, Brassica sp.; settings: Brassica rapa, post-emergence, 336 h, two weeks after treatment; for pest or weed control at 8966.8 g/ha: 8 lb/acre
# Procedure, shortened: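 A greenhouse post-emergence herbicide test on turnip. Seeds were sown on the surface of potting soil in 3' plastic pots, lightly covered with screened soil and watered from below. Planting was timed so seedlings had 1 or 2 true leaves above the cotyledons at spraying, done in a hood with a fixed nozzle. Control or injury was scored by eye after two weeks.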
# Corn (CN) [2] = assay: Pre-emergence herbicide test; assay type: in vivo; settings: Zea mays, 336 h, 8 lb/acre, two weeks after treatment
# Procedure, shortened: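 Four corn seeds per pot, sown at seed-diameter depth one day before spraying, got soil surface treatment at 8 lbs/acre (4 lbs/acre formulations also prepared) in 38 gallons/acre. Pots were greenhouse-held with sub-irrigation only. Injury or control was scored visually two weeks after treatment.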
# Barnyard grass (BG) [3] = assay: Post-emergence herbicide test; assay type: in vivo; settings: Echinochloa crus-galli, 336 h, two weeks after treatment; for pest or weed control at 8966.8 g/ha: 8 lb/acre
# Procedure, shortened: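 Greenhouse pot-grown barnyard grass seedlings sprayed post-emergence at 8 lbs active compound per acre (some at 4 lbs/acre) in 38 gallons per acre, then sub-irrigated. Injury or control rated visually two weeks after treatment.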
# [4] = test system: Yellow foxtail grass (YF); assay: Pre-emergence herbicide test; assay type: in vivo, Setaria glauca; settings: Setaria, 336 h, 8 lb/acre, two weeks after treatment
# Procedure, shortened: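 Seeds surface-sown in potting soil one day before spraying; compounds applied pre-emergence at 8 or 4 lbs/acre in 38 gallons/acre spray. Pots held in greenhouse with sub-irrigation only. Injury or control rated visually two weeks after treatment.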
# Cotton (CT) [5] = assay: Post-emergence herbicide test; assay type: in vivo, Gossypium hirsutum var. DPL smooth leaf; settings: Gossypium hirsutum, post-emergence, 336 h, two weeks after treatment; for pest or weed control at 8966.8 g/ha: 8 lb/acre
# Procedure, shortened: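 Cotton (Gossypium hirsutum var. DPL smooth leaf) was grown in 3' plastic pots of potting soil, four seeds per pot, planted at a depth equal to the seed diameter and watered by sub-irrigation. At the stage of expanded cotyledons with the first true leaf 1' long, plants were sprayed post-emergence in a hood with a fixed nozzle over a moving belt. Percent control was rated visually two weeks later.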
# [6] = test system: Yellow foxtail grass (YF); assay: Post-emergence herbicide test; assay type: in vivo, Setaria glauca; settings: Setaria, 336 h, two weeks after treatment; for pest or weed control at 8966.8 g/ha: 8 lb/acre
# Procedure, shortened: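 Potted seedlings grown in greenhouse, planting staggered to reach the target stage together, then sprayed post-emergence at 8 lbs actual compound/acre in 38 gallons/acre (4 lbs/acre formulations also prepared). Sub-irrigated afterwards. Injury or control rated visually two weeks after treatment.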
# Bean (BN) [7] = assay: Post-emergence herbicide test; assay type: in vivo, Phaseolus vulgaris var. Black Valentine; settings: Phaseolus vulgaris, post-emergence, 336 h, two weeks after treatment; for pest or weed control at 8966.8 g/ha: 8 lb/acre
# Procedure, shortened: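 Snapbean (Phaseolus vulgaris var. Black Valentine) was tested post-emergence. Four seeds were sown in 3' plastic pots of potting soil at a depth equal to the seed diameter, then sub-irrigated in greenhouse trays. Planting dates were staggered so plants were sprayed once primary leaves had expanded, with the growing point at the primary leaf nodes.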
# Amaranth pigweed (PW) [8] = assay: Pre-emergence herbicide test; assay type: in vivo, Amaranthus retroflexus; settings: 336 h, 8 lb/acre, two weeks after treatment
# Procedure, shortened: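 Pigweed was surface-seeded in potted soil one day before spraying at 8 lbs compound per acre, or 4 lbs/acre, in 38 gallons per acre. Pots were kept in the greenhouse with sub-irrigation only; injury or control was rated visually two weeks after treatment.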
# Johnson grass (JG) [9] = assay: Post-emergence herbicide test; assay type: in vivo, Sorgum helepense; settings: Sorghum halepense, 336 h, two weeks after treatment; for pest or weed control at 8966.8 g/ha: 8 lb/acre
# Procedure, shortened: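 Greenhouse pot-grown seedlings sprayed post-emergence at 8 lbs compound per acre (some at 4 lbs/acre) in 38 gallons per acre spray volume. Sub-irrigated thereafter. Injury/control rated visually two weeks after treatment.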
# Barnyard grass (BG) [10] = assay: Pre-emergence herbicide test; assay type: in vivo; settings: Echinochloa crus-galli, 336 h, 8 lb/acre, two weeks after treatment
# Procedure, shortened: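 Barnyard grass surface-seeded in potting soil and sprayed pre-emergence one day after seeding, at 8 or 4 lb compound/acre in 38 gal/acre spray volume. Pots kept in greenhouse with sub-irrigation only; injury or control rated visually two weeks after treatment.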
# Amaranth pigweed (PW) [11] = assay: Post-emergence herbicide test; assay type: in vivo, Amaranthus retroflexus; settings: 336 h, two weeks after treatment; for pest or weed control at 8966.8 g/ha: 8 lb/acre
# Procedure, shortened: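 Pot-grown pigweed was sprayed post-emergence at the 1–2 true-leaf stage with compound at rates equivalent to 8 lbs per acre (formulations also prepared for 4 lbs/acre) in 38 gallons per acre, using a hood with fixed nozzle. Plants were sub-irrigated in the greenhouse, and injury or control was rated visually two weeks after treatment.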
# Johnson grass (JG) [12] = assay: Pre-emergence herbicide test; assay type: in vivo, Sorgum helepense; settings: Sorghum halepense, 336 h, 8 lb/acre, two weeks after treatment
# Procedure, shortened: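 Pots seeded one day before spraying; compound applied pre-emergence at 8 lbs/acre (or 4 lbs/acre) in 38 gallons/acre spray volume. Sub-irrigated in greenhouse; injury/control rated visually two weeks after treatment.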
# Bean (BN) [13] = assay: Pre-emergence herbicide test; assay type: in vivo, Phaseolus vulgaris var. Black Valentine; settings: Phaseolus vulgaris, 336 h, 8 lb/acre, two weeks after treatment
# Procedure, shortened: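 Black Valentine bean was seeded in potting soil one day before spraying. Compound was applied pre-emergence at 8 lbs/acre (also 4 lbs/acre) in 38 gallons per acre. Plants were sub-irrigated and injury or control was rated visually after two weeks.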
# [14] = test system: variety of crops and weed species; assay: Pre- and post-emergence herbicide tests, overall assessment of Tables III-VI; assay type: in vivo; settings: data of Tables III-VI
# Experimental: All crop and weed species were planted individually in 3' plastic pots containing potting soil. Four seeds each of corn, cotton, and snapbeans were seeded to a depth equal to the diameter of the seed. All other species were surface seeded and sprinkled with screened soil in an amount sufficient to cover the seed. Immediately after planting, all pots were watered by sub-irrigation in greenhouse trays. Pots for the pre-emergence phase were seeded one day before treatment.
# Compounds were tested at rates of application equivalent to 8 lbs. of actual compound per acre in a spray volume of 38 gallons per acre. Spray hood constants required to deliver the above volume are as follows:
# Two weeks after treatment, pre- and post-emergence injury or control was visually rated, and the results were as shown in the following tables. Pre-emergence data are provided in TABLE III and post-emergence data are provided in TABLE IV, for compounds having the formula illustrated in TABLE I. Correspondingly, pre-emergence and post-emergence data, respectively, are set forth in TABLES V AND VI, for compounds having the formula illustrated in TABLE II.
# Turnip (TP) [15] = assay: Pre-emergence herbicide test; assay type: in vivo, Brassica sp.; settings: Brassica rapa, pre-emergence, 336 h; 8 lb/acre; two weeks after treatment
# Procedure, shortened: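 Turnip (Brassica sp.) seeds were surface sown in 3' plastic pots of potting soil, covered with a thin layer of screened soil, and sub-irrigated in greenhouse trays. Pots were seeded one day ahead of treatment, sprayed pre-emergence under a hood with a fixed nozzle and moving belt, then kept in the greenhouse.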
# Crabgrass (CG) [16] = assay: Pre-emergence herbicide test; assay type: in vivo, Digitaria sanquinalis; settings: Digitaria sanguinalis, pre-emergence, 336 h; 8 lb/acre; two weeks after treatment
# Procedure, shortened: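 Crabgrass (Digitaria sanquinalis) was surface seeded in 3' plastic pots of potting soil, covered with screened soil, and watered by sub-irrigation in greenhouse trays. Pots were seeded one day before spraying in a hood with a moving belt and fixed nozzle. Plants stayed in the greenhouse on sub-irrigation, and pre-emergence control was rated visually two weeks after treatment.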
# Crabgrass (CG) [17] = assay: Post-emergence herbicide test; assay type: in vivo, Digitaria sanquinalis; settings: Digitaria sanguinalis, post-emergence, 336 h, two weeks after treatment; for pest or weed control at 8966.8 g/ha: 8 lb/acre
# Procedure, shortened: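 Crabgrass (Digitaria sanquinalis) was surface seeded individually in 3' plastic pots of potting soil, covered with screened soil, and watered by sub-irrigation in greenhouse trays. Planting was staggered so seedlings reached the target stage together. Post-emergence sprays were applied in a hood with a removable belt and fixed nozzle, and control was visually rated two weeks after treatment.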
# Cotton (CT) [18] = assay: Pre-emergence herbicide test; assay type: in vivo, Gossypium hirsutum var. DPL smooth leaf; settings: Gossypium hirsutum, 336 h, 8 lb/acre, two weeks after treatment
# Procedure, shortened: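 Crop and weed species seeded one day before treatment, then sprayed pre-emergence at 8 lbs actual compound per acre (also 4 lbs/acre formulations) in 38 gallons per acre. Pots kept in greenhouse with sub-irrigation only; injury or control visually rated two weeks after treatment.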
# Corn (CN) [19] = assay: Post-emergence herbicide test; assay type: in vivo; settings: Zea mays, 336 h, two weeks after treatment; for pest or weed control at 8966.8 g/ha: 8 lb/acre
# Procedure, shortened: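 Greenhouse seedlings grown in potting soil and sprayed post-emergence at 8 lbs compound/acre (formulations also made for 4 lbs/acre) in 38 gallons/acre spray volume. Watering by sub-irrigation only. Injury or control rated visually two weeks after treatment.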
Compound,pest or weed control at 8966.8 g/ha (Turnip (TP) [1]) [%],pest or weed control at 8966.8 g/ha (Corn (CN) [2]) [%],pest or weed control at 8966.8 g/ha (Barnyard grass (BG) [3]) [%],pest or weed control at 8966.8 g/ha [4] [%],pest or weed control at 8966.8 g/ha (Cotton (CT) [5]) [%],pest or weed control at 8966.8 g/ha [6] [%],pest or weed control at 8966.8 g/ha (Bean (BN) [7]) [%],pest or weed control at 8966.8 g/ha (Amaranth pigweed (PW) [8]) [%],pest or weed control at 8966.8 g/ha (Johnson grass (JG) [9]) [%],pest or weed control at 8966.8 g/ha (Barnyard grass (BG) [10]) [%],pest or weed control at 8966.8 g/ha (Amaranth pigweed (PW) [11]) [%],pest or weed control at 8966.8 g/ha (Johnson grass (JG) [12]) [%],pest or weed control at 8966.8 g/ha (Bean (BN) [13]) [%],"herbicidal effectiveness / selectivity, in words [14]",pest or weed control at 8966.8 g/ha (Turnip (TP) [15]) [%],pest or weed control at 8966.8 g/ha (Crabgrass (CG) [16]) [%],pest or weed control at 8966.8 g/ha (Crabgrass (CG) [17]) [%],pest or weed control at 8966.8 g/ha (Cotton (CT) [18]) [%],pest or weed control at 8966.8 g/ha (Corn (CN) [19]) [%],also measured
"CN(C)C(=O)Nc1nnc(C(F)(F)F)s1 [Example 2, 1,1-Dimethyl-3-[5-Trifluoromethyl-2-(1,3,4-Thiadiazolyl)] Urea]",80,50,60,90,90,60,60,90,40,90,90,90,80,extremely effective when applied to a variety of crops and weed species,100,90,60,70,100,pest or weed control at 2241.7 g/ha (Turnip (TP) [1]; 2 lb/acre): 100%; pest or weed control at 4483.4 g/ha (Turnip (TP) [1]; 4 lb/acre): 90%; pest or weed control at 2241.7 g/ha (Barnyard grass (BG) [3]; 2 lb/acre): 90%; pest or weed control at 4483.4 g/ha (Barnyard grass (BG) [3]; 4 lb/acre): 90%; pest or weed control at 2241.7 g/ha (Cotton (CT) [5]; 2 lb/acre): 100%; pest or weed control at 4483.4 g/ha (Cotton (CT) [5]; 4 lb/acre): 90%; pest or weed control ([6]; 2 lb/acre): 90%; pest or weed control at 4483.4 g/ha ([6]; 4 lb/acre): 90%; pest or weed control at 2241.7 g/ha (Bean (BN) [7]; 2 lb/acre): 80%; pest or weed control at 4483.4 g/ha (Bean (BN) [7]; 4 lb/acre): 70%; pest or weed control (Johnson grass (JG) [9]; 2 lb/acre): 90%; pest or weed control at 4483.4 g/ha (Johnson grass (JG) [9]; 4 lb/acre): 30%; pest or weed control at 2241.7 g/ha (Amaranth pigweed (PW) [11]; 2 lb/acre): 100%; pest or weed control at 4483.4 g/ha (Amaranth pigweed (PW) [11]; 4 lb/acre): 100%; pest or weed control (Crabgrass (CG) [17]; 2 lb/acre): 100%; pest or weed control at 4483.4 g/ha (Crabgrass (CG) [17]; 4 lb/acre): 80%; pest or weed control (Corn (CN) [19]; 2 lb/acre): 100%; pest or weed control at 4483.4 g/ha (Corn (CN) [19]; 4 lb/acre): 100%
"CSc1nnc(N(C)C(=O)N(C)C)s1 [Example 5, 1,1,3-trimethyl-3-[5-methylthio-2-(1,3,4-thiadiazolyl)] urea]",100,70,100,90,100,100,100,100,90,80,100,50,90,extremely effective when applied to a variety of crops and weed species,100,100,100,90,100,–
